Experimental data reported in patent US5840336A, “Two-phase matrix for sustained release drug delivery device” (Cygnus, Inc., priority 1995, dated 1998).

Tests used:
[1] = Solubility of the drug in pH 5.0 phosphate buffer receiver fluid; type: physicochemical
D2 = conditions: cited from earlier work
[2] = pH 6
[3] = type: in vivo
Protocol: The effective dose for treating Parkinson's disease is estimated to be in the range of about 1 to 3 μg/kg/hr. Accordingly, for transdermal administration, the target flux of this drug (based on a 20 cm^2 delivery area) is estimated to be in the range of approximately 3-10 μg/cm^2 /hr.

solubility for the drug [1] | SMILES | selective D2 agonist (D2) | skin flux from liquid formulations [2] | target flux [3] | effective dose for treating Parkinson's disease ([3]; estimated)
reasonable solubility | Cc1cccc(CN2CCN(C)C[C@@H](NC(=O)c3n[nH]c4ccccc34)C2)c1.Cl.Cl [(R)-(-)-N-(1-Methyl-4-(3-methylbenzyl)hexahydro-1H-1,4-diazepin-6-yl)-1H-indazole-3-carboxamide dihydrochloride] | – | – | – | –
– | CCCN(CCc1cccs1)[C@H]1CCc2c(O)cccc2C1 [S(-)-2-(N-propyl-N-2-thienylethylamine)-5-hydroxytetralin] | selective D2 agonist | at or above the effective range | 3-10 μg/cm^2 /hr | 1 to 3 µg/kg/h
